# Where a name gives a salt, the structure may show the parent alone.
# How the values were obtained:
# sebum secretion = experiment: Inhibitory effect of MMPs inhibitors on sebum secretion in UVB-irradiated hairless mice (sebumeter); assay type: in vivo
# Source text: UV is generally known to activate the sebaceous gland cells on the skin and thereby to enhance the amount of sebum secretion, which has been reported on a model using hairless mice ([…] et al., Arch Dermatol., Vol. 284, 106 (1992)). In an experiment, Bissett et al. (Phytochem. Phytobiol, Vol. 46, 3, 367 (1987)) applied the method of preparing a light-aged skin, and induced the activation of sebaceous gland cells and enhancement in the amount of sebum by irradiating the dorsal area of the […] repeatedly three times per week for 5-8 weeks by controlling the amount of UVB irradiation to under the […] formation level. […] As the control, a group in which the solvent for the test substance was applied in a similar protocol was set up, and the effect of inhibiting sebum was evaluated by comparing the amount of sebum between the two. The measurement of sebum amount was performed using a sebumeter (COURAGE KHAZAKA company). From the measured values, the ratio (%) of sebum inhibition was calculated based on the following criteria: [formula]
# [1] = test system: gelatinase belonging to the MMPs; conditions: skin irradiated with UVB for 10 weeks, EDTA (100 mM) added in vitro; FIG. 3C
# Source text: By staining gelatin with the Ponceau solution, the gelatin digested area (the area in which the gelatinase activity is present) was rendered white for detection.
# sebaceous gland = experiment: Effect of transdermal application of an MMPs inhibitor on sebaceous gland development under UVB stimulation; assay type: in vivo, hairless mice; conditions: FIG. 4A vs solvent only FIG. 4B
# Source text: It is known that when UVB (50 mJ/cm^2-200 mJ/cm^2; 50 mJ/cm^2 at the start of irradiation, the amount of irradiation is increased stepwise depending on the number of irradiations) below the erythema formation level is repeatedly irradiated to hairless mice, the sebaceous gland becomes developed and the amount of sebum increases (R. H. Lesnik et al., Arch Dermatol., Vol. 284, 106 (1992)). FIG. 2A and FIG. 2B represent the H&E stains of the UVB-non-irradiated tissue and the UVB-irradiated tissue. It is observed that UVB irradiation results in the thickening of the epidermis as well as the development of the sebaceous gland.
# (§1) The effect of the transdermal application of an MMPs inhibitor on the sebaceous gland development and the gelatinase activity present in the sebaceous gland is shown for active substance A as an example (FIG. 4A and FIG. 4B).
# gelatinase = experiment: Gelatinase activity in the sebaceous gland after transdermal application, in situ zymography; assay type: in vivo, hairless mice; conditions: FIG. 4A vs solvent only FIG. 4B
# Source text: as §1
# [2] = 100 μl of 1% test substance applied three times per week immediately after each UV irradiation, vs solvent group, hairless mice dorsal area, 5-8 weeks UVB
compound,measurement,setting,value
"COc1cc(/C=C/C(=O)CC(=O)/C=C/c2ccc(O)c(OC)c2)ccc1O [Curcumine, curcumine]",Ratio of sebum inhibition (%),sebum secretion; [2],77%
O=C(O)CN(CCN(CC(=O)O)CC(=O)O)CC(=O)O [EDTA],Gelatin degradation at the epidermal area and the sebaceous gland area,[1],inhibited the gelatin degradation
"C[C@]12CC[C@@H]3c4ccc(O)cc4CC[C@H]3[C@@H]1CC[C@@H]2O [Estradiol, estradiol, reference compound]",Ratio of sebum inhibition (%),"sebum secretion; positive control, 0.6 mg/kg oral administration, UVB-irradiated hairless mice",65%
COc1ccc(S(=O)(=O)N(Cc2cccnc2)[C@@H](C(=O)NO)C(C)C)cc1 [Hydrochloride of active ingredient A],Ratio of sebum inhibition (%),sebum secretion; [2],79%
COc1ccc(S(=O)(=O)N(Cc2cccnc2)[C@@H](C(=O)NO)C(C)C)cc1 [active substance A],Development of the sebaceous gland area,sebaceous gland,suppresses the development of the sebaceous gland area
same,Gelatinase activity present in the sebaceous gland,gelatinase,inhibited

# From US20040009241A1, “External skin preparations for suppressing sebum secretion” (priority 2002, published 2004)
